The subject of one data set is PSA. In words: Western blot of PSA expression in C4–2 cells. It counts as cell-based, human. To be noted: for C4-2 cell lysates PSA Western Blot, relative to DMSO (100%): 10 nM DHT 24 h, 20 μM compound 3 h pre-exposure; for Effect on endogenous and DHT-enhanced PSA expression and secretion: C4–2 cells, 20 μM for 3 h prior to DMSO or 10 nM DHT, 24 h. The protocol:
Cell lysate protein concentrations were determined in a bicinchoninic acid (BCA) assay. Equal amounts of cell protein were mixed with SDS-PAGE sample buffer and placed in a heat block at 100 °C for 5 min. The protein constituents of C4–2 cells were separated by SDS-PAGE on 10% separating gels, transferred to nitrocellulose membranes and western blots were probed overnight at 4 °C with a 1:1000 dilution of a rabbit anti-hPSA (Cell Signaling, Danvers, MA) primary antibody in Tris-buffered saline (TBS) Tween 20 (TBST) containing 5% non-fat milk. Membranes were washed 3x in TBST for 10 min, then incubated for 1 h at room temperature with a 1:10,000 dilution of the goat anti-rabbit IgG horse radish peroxidase (HRP) conjugated secondary antibody (Invitrogen, Carlsbad, CA) in TBST containing 5% non-fat milk. Western blots were then washed 3x in TBST and developed with Pierce enhanced chemiluminescence (ECL) western blotting substrate (Thermo Fisher Scientific, Waltham, MA). Images of western blot ECL bands were acquired on an iBright 1500 imaging system (Thermo Fisher Scientific, Waltham, MA) and quantified by iBright image analysis software.
Background: In western blotting, separated proteins are transferred to a membrane and probed.

The next data set has as its target T1, AR (Homo sapiens, UniProt P10275, T878A).
T1 construct: DHT-induced full length AR directed TA; endogenous in cells; host or cells: C4–2 castration resistant prostate cancer cells
T1 sequence (P10275 1-920 T878A): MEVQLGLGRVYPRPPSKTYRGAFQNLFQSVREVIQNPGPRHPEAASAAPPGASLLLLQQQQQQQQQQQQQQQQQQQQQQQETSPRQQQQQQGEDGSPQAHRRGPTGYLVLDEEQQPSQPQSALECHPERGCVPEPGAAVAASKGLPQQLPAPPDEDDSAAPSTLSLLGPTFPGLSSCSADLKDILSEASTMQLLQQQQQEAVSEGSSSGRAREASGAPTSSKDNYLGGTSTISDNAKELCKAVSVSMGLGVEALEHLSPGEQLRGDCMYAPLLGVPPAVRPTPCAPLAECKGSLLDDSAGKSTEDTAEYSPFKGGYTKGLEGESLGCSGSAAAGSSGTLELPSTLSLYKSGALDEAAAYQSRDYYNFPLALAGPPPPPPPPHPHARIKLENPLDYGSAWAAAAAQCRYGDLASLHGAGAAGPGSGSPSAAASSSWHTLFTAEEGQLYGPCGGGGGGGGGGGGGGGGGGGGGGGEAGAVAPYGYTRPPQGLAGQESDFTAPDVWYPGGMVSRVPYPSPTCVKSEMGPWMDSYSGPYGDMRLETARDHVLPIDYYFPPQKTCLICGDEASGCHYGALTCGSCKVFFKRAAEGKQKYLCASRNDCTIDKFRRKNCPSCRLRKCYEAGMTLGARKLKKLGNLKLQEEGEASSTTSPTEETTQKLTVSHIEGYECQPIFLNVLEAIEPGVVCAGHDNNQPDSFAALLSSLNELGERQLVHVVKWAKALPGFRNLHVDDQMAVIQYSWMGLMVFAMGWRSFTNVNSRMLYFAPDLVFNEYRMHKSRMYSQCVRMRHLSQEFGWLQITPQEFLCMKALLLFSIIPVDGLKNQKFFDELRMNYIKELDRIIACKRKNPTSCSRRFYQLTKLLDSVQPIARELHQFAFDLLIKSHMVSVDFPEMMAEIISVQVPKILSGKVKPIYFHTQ
As to the kind of experiment: Western blotting cellular thermal shift assay for AR in C4–2 cells. Format: cell-based. To be noted: 1 h at 37 °C prior to heat shock at 46 °C, hits and enzalutamide 20 μM, DHT 10 nM. The protocol:
C4–2 cells were harvested by trypsinization, washed 1x by centrifugation at 270 × g for 5 min and resuspension in PBS, counted, centrifugated at 270 × g for 5 min and resuspended at 7 × 10 [6] cells per mL in Opti-MEM medium (Gibco, Gaithersburg, MD). 50 μL of C4–2 cell suspension (3.5 × 10 [5] cells) were then transferred to PCR tubes that were placed in a T-100 thermocycler (BioRad, Hercules, CA) and a 2 °C interval temperature step gradient from 37 °C to 53 °C was applied. Cells were maintained at each step of the temperature gradient for 5 min and then tubes were withdrawn and placed on ice. 50 μL of cell lysis buffer, 500 mM NaCl, 1% NP-40, 1x protease inhibitor cocktail in PBS were added to the heat shocked cell suspensions in PCR tubes and placed on ice for an additional 30 min. […] 45 μL of cell lysis supernatants were mixed with 15 μL of 5x SDS-PAGE sample buffer and placed in a heat block at 100 °C for 5 min. The protein constituents of heat shocked C4–2 cell lysis supernatants were separated by SDS-PAGE on 8% separating gels, transferred to nitrocellulose membranes that were blocked for 1 h at room temperature in 5% non-fat milk in TBST, and then probed overnight at 4 °C with a 1:1000 dilution of either rabbit anti-AR (Cell Signaling, Danvers, MA) or rabbit anti-TIF2 (Bethyl Laboratories, Waltham, MA) primary antibodies in TBST containing 5% non-fat milk. Membranes were then washed 3x in TBST buffer for 10 min, then incubated with a 1:10,000 dilution of the goat anti-rabbit IgG HRP conjugated secondary antibody (Invitrogen, Carlsbad,CA) in TBST containing 5% non-fat milk for 1 h at room temperature. Western blots were then washed 3x in TBST buffer and developed with Pierce ECL western blotting substrate. Images of ECL western blots were acquired on an iBright 1500 imaging system and quantified using the iBright image analysis software.

Another data set concerns HEK 293 cells. As to the kind of experiment: M2H viability counter screen. Format: cell-based. To be noted: cytotoxicity counter screen; read-out: M2H viability CS GI50. (In general: Counterscreens check selectivity or assay interference.)

What is called GI50 is the concentration giving 50% growth inhibition.

Entries after “also recorded” stand apart in the source; their conditions may differ.

For the compound `Cc1ccccc1-c1cc(O)c2c(c1)CN(c1nc(C(N)=O)cs1)CCO2` [S1–1], in the data set on PSA, the “C4-2 cell lysates PSA Western Blot, relative to DMSO (100%)” value was 22.1%; the “Effect on endogenous and DHT-enhanced PSA expression and secretion” value is “substantially reduced both endogenous and DHT-enhanced PSA expression and secretion”. For the same compound, on AR, the “Effect on AR thermal stability, western blot CETSA” value (“Effect on AR thermal stability” for short) was “did not stabilize AR, but blocked DHT-enhanced AR stabilization; also recorded: only partially blocked DHT-enhanced AR stabilization”.
`Cc1ccccc1-c1cc(O)c2c(c1)CN(c1nccs1)CCO2` [S1–3]: in the data set with HEK 293 cells, the GI50 is more than 100 µM.
On to `Cc1nsc(NC(=O)N2CCC(Sc3ccccc3C)CC2)n1` [S2–6], for which, in the data set with PSA, the “C4-2 cell lysates PSA Western Blot, relative to DMSO (100%)” value was determined as 0.9%; the “Effect on endogenous and DHT-enhanced PSA expression and secretion” value is “substantially reduced both endogenous and DHT-enhanced PSA expression and secretion”. The “Effect on AR thermal stability” value at AR is recorded as “did not stabilize AR, but blocked DHT-enhanced AR stabilization; also recorded: blocked DHT-enhanced AR thermal stabilization below DMSO baseline levels”.
`Cc1c(-c2ccccc2F)[nH]c2ccc(CNC(=O)CCc3cn[nH]c3)cc12` [S3–11]: in the data set on PSA, the “C4-2 cell lysates PSA Western Blot, relative to DMSO (100%)” value amounted to 22.8%; the “Effect on endogenous and DHT-enhanced PSA expression and secretion” value was “substantially reduced both endogenous and DHT-enhanced PSA expression and secretion”. The “Effect on AR thermal stability” value at AR is “did not stabilize AR, but blocked DHT-enhanced AR stabilization; also recorded: only partially blocked DHT-enhanced AR stabilization”.

Values taken from paper PMC12366525, “Characterization of allosteric modulators that disrupt androgen receptor co-activator protein-protein interactions to alter transactivation–Drug leads for metastatic castration resistant prostate cancer” (SLAS discovery : advancing life sciences R & D, 2023).
